Source: paper PMC7037732, “Synthesis of Combretastatin A-4 and 3′-Aminocombretastatin A-4 derivatives with Aminoacid Containing Pendants and Study of their Interaction with Tubulin and as Downregulators of the VEGF, hTERT and c-Myc Gene Expression” (Molecules, 2020)

Columns and labels:
[1] = test system: A-549 (human pulmonary adenocarcinoma); test: Inhibition of cell proliferation (MTT), A-549; type: cell-based; settings: 48 h of treatment (footnote), average ±SD of three experiments
Source text: (§1) The ability of the synthetic compounds to inhibit cell proliferation was established by means of their IC50 values towards the tumor cell lines HT-29 (human colon adenocarcinoma), MCF-7 (breast adenocarcinoma) and A-549 (human pulmonary adenocarcinoma), as well as towards the nontumor cell line HEK-293 (human embryonic kidney cells). Results for compounds derived from CA-4 are presented in Table 1, along with the calculated selectivity indexes SIA (for HT-29 cell line), SIB (for MCF-7 cell line) and SIc (for A-549 cell line), obtained by dividing the IC50 values of the nontumor cell line (HEK-293) by those of the corresponding tumor cell line. The higher the SI index, the higher the therapeutic safety margin.
Cell culture media were purchased from Gibco (Grand Island, NY, USA). Fetal bovine serum (FBS) was a product of Harlan-Seralab (Belton, U.K.). Supplements and other chemicals not listed in this section were obtained from Sigma Chemical Co. (St. Louis, MO, USA). Plastics for cell culture were supplied by Thermo Fischer Scientific Inc., Madrid, Spain. All tested compounds were dissolved in DMSO at a concentration of 10 μg/mL and stored at −20 °C until use. HT-29, MCF-7, A-549 and HEK-293 cell lines were maintained in a Dulbecco’s modified Eagle’s medium (DMEM) containing glucose (1 g/L), glutamine (2 mM), penicillin (50 IU/mL), streptomycin (50 μg/mL) and amphotericin B (1.25 μg/mL), supplemented with 10% FBS. Cells from human non-small lung carcinoma (clone A549; ATCC n°: CCL2, MD, USA) were routinely grown at 37 °C in a humidified atmosphere of 5% CO2. Cells were maintained in a standard medium composed of RPMI 1640 (Lonza, Group Ltd., Basel, Switzerland), supplemented with 10% fetal bovine serum (FBS), 2 mM L-glutamine and 1% penicillin and streptomycin (Invitrogen). Cells were free from mycoplasma as determined by MycoAlert tests (Lonza, Group Ltd., Basel, Switzerland). […]

purified tubulin = test: Critical concentration (CrC) for the assembly of purified tubulin in GAB; type: biochemical; settings: compound 27.5 μM, tubulin 25 μM, glycerol (GAB) and GTP assembly buffer; control 7.9 ± 1.2
Description: The effect on the self-assembly of tubulin was determined by measuring the critical concentration (CrC).

[2] = test system: HEK-293 (human embryonic kidney cells); test: Inhibition of cell proliferation (MTT), nontumor HEK-293; type: cell-based; settings: Homo sapiens, 48 h of treatment (footnote), average ±SD of three experiments
Source text: as §1
(§2) Cell culture media were purchased from Gibco (Grand Island, NY, USA). Fetal bovine serum (FBS) was a product of Harlan-Seralab (Belton, U.K.). Supplements and other chemicals not listed in this section were obtained from Sigma Chemical Co. (St. Louis, MO, USA). Plastics for cell culture were supplied by Thermo Fischer Scientific Inc., Madrid, Spain. All tested compounds were dissolved in DMSO at a concentration of 10 μg/mL and stored at −20 °C until use. HT-29, MCF-7, A-549 and HEK-293 cell lines were maintained in a Dulbecco’s modified Eagle’s medium (DMEM) containing glucose (1 g/L), glutamine (2 mM), penicillin (50 IU/mL), streptomycin (50 μg/mL) and amphotericin B (1.25 μg/mL), supplemented with 10% FBS. Cells from human non-small lung carcinoma (clone A549; ATCC n°: CCL2, MD, USA) were routinely grown at 37 °C in a humidified atmosphere of 5% CO2. Cells were maintained in a standard medium composed of RPMI 1640 (Lonza, Group Ltd., Basel, Switzerland), supplemented with 10% fetal bovine serum (FBS), 2 mM L-glutamine and 1% penicillin and streptomycin (Invitrogen). Cells were free from mycoplasma as determined by MycoAlert tests (Lonza, Group Ltd., Basel, Switzerland).
(§3) A total of 5 × 10^3 HT-29, MCF-7 or HEK-293 cells in a total volume of 100 μL of their respective growth media were incubated with serial dilutions of the tested compounds. The 3-(4,5-dimethylthiazol-2-yl)-2,5-diphenyltetrazolium bromide (MTT; Sigma Chemical Co.) dye reduction assay in a 96-well microplate was used, as previously described. […] The resulting formazan was dissolved in 150 μL of 0.04 N HCl/2-propanol and read at 550 nm. All determinations were carried out in triplicate.

[3] = test system: MCF-7 (breast adenocarcinoma); test: Inhibition of cell proliferation (MTT), MCF-7; type: cell-based, human; settings: Homo sapiens, 48 h of treatment (footnote), average ±SD of three experiments
Source text: as §1, §2, §3

[4] = test system: HT-29 (human colon adenocarcinoma); test: Inhibition of cell proliferation (MTT), HT-29; type: cell-based; settings: Homo sapiens, 48 h of treatment (footnote), average ±SD of three experiments
Source text: as §1, §2, §3

A-549 cells = test: Cell cycle distribution by flow cytometry; type: cell-based, human; settings: A-549, 24 h; for cells accumulated in the G2/M phase: concentration per compound as in Tables 6 and 7, control 14%
Description: The effects of some CA-4 derivatives on the cell cycle were evaluated in A-549 cells.
The effects of some AmCA-4 derivatives on the cell cycle were also evaluated in A-549 cells.
The supernatant and trypsinated cells were harvested and then centrifuged (1200 rpm, 5 min, 4 °C). The cell pellet was resuspended in 1 mL of cold 70% ethanol for 30 min at −20 °C. Cells were centrifuged (2000 rpm, 5 min, 4 °C) to remove ethanol, and then the cell pellet was resuspended in the staining mix containing 50 µg/mL propidium iodide (Molecular Probes, France) and 100 µg/mL RNAse A (Sigma, France) in PBS for 20 min at room temperature in darkness. Samples were analyzed on a Becton Dickinson FACScan flow cytometer using the CellQuest software, which was also used to determine the percentage of cells in the G2/M phases of the cell cycle. PI was excited at 488 nm, and fluorescence analyzed at 620 nm on channel Fl-2.

[5] = Homo sapiens, A549, 48 h, Table 1
[6] = Homo sapiens, A549, 48 h, Table 2

SMILES | IC50 [1, 5] [µM] | CrC (critical concentration) (purified tubulin) [µM] | IC50 ([2]; HEK293, 48 h, Table 1) [µM] | IC50 ([3]; MCF7, 48 h, Table 1) [µM] | IC50 ([4]; HT-29, 48 h, Table 1) [µM] | IC50 [1, 6] [µM] | IC50 ([2]; HEK293, 48 h, Table 2) [µM] | IC50 ([3]; MCF7, 48 h, Table 2) [µM] | IC50 ([4]; HT-29, 48 h, Table 2) [µM] | other results
COC(=O)CNC(=O)COc1cc(/C=C\c2cc(OC)c(OC)c(OC)c2)ccc1OC [Compound 3.1] | 26 ± 2 | 9.52 ± 0.05 | 9 ± 1 | 8 ± 2 | 12 ± 2 | – | – | – | – | –
COC(=O)[C@@H](NC(=O)COc1cc(/C=C\c2cc(OC)c(OC)c(OC)c2)ccc1OC)C(C)C [Compound 3.2] | 24 ± 1 | 11.7 ± 2.3 | 5 ± 2 | 12 ± 6 | 24 ± 4 | – | – | – | – | G0/G1 (A-549 cells; 75 μM): 42 ± 3%; G2/M (A-549 cells; 75 μM): 44 ± 1%; S (A-549 cells; 75 μM): 14 ± 4%
COC(=O)[C@H](CC(C)C)NC(=O)COc1cc(/C=C\c2cc(OC)c(OC)c(OC)c2)ccc1OC [Compound 3.3] | < 10 | 9.4 ± 1.4 | 9 ± 2 | 19 ± 6 | 29 ± 6 | – | – | – | – | IC50 ([1]; Table 1): 8 ± 1 µM; G0/G1 (A-549 cells; 75 μM): 45 ± 6%; G2/M (A-549 cells; 75 μM): 36 ± 4%; S (A-549 cells; 75 μM): 19 ± 2%
COC(=O)[C@H](Cc1ccccc1)NC(=O)COc1cc(/C=C\c2cc(OC)c(OC)c(OC)c2)ccc1OC [Compound 3.4] | < 10 | – | 4 ± 1 | 8 ± 2 | 28 ± 7 | – | – | – | – | IC50 ([1]; Table 1): 9 ± 2 µM; G0/G1 (A-549 cells; 50 μM): 33 ± 4%; G2/M (A-549 cells; 50 μM): 51 ± 2%; S (A-549 cells; 50 μM): 16 ± 5%; cells accumulated in the G2/M phase (A-549 cells): 50–70%
COC(=O)[C@H](CO)NC(=O)COc1cc(/C=C\c2cc(OC)c(OC)c(OC)c2)ccc1OC [Compound 3.6] | 18 ± 4 | – | 7 ± 2 | 7 ± 3 | 9 ± 3 | – | – | – | – | G0/G1 (A-549 cells; 75 μM): 30 ± 9%; G2/M (A-549 cells; 75 μM): 53 ± 3%; S (A-549 cells; 75 μM): 17 ± 6%; cells accumulated in the G2/M phase (A-549 cells): 50–70%
COc1ccc(/C=C\c2cc(OC)c(OC)c(OC)c2)cc1OCC(=O)N[C@@H](CO)C(=O)O [Compound 4.6] | 36 ± 4 | 7.9 ± 1.6 | 17 ± 1 | 27 ± 9 | 39 ± 16 | – | – | – | – | –
COc1ccc(/C=C\c2cc(OC)c(OC)c(OC)c2)cc1OCC(=O)N[C@H](C(=O)O)C(C)O (stereo partly drawn) [Compound 4.7] | 41 ± 3 | 10.1 ± 1.8 | 23 ± 9 | 40 ± 9 | 34 ± 11 | – | – | – | – | –
COc1ccc(/C=C\c2cc(OC)c(OC)c(OC)c2)cc1OCC(=O)N[C@@H](Cc1ccc(O)cc1)C(=O)O [Compound 4.8] | 30 ± 7 | 8.5 ± 2.0 | – | – | – | – | – | – | – | IC50 ([2]; HEK293, Table 1): 33 ± 1 µM; IC50 ([3]; MCF7, Table 1): 43 ± 7 µM; IC50 ([4]; HT-29, Table 1): 55 ± 5 µM
COC(=O)[C@H](NC(=O)COc1cc(/C=C\c2cc(OC)c(OC)c(OC)c2)ccc1OC)C(C)C [Compound 5.1] | < 10 | – | 3.9 ± 0.6 | 9 ± 3 | 27 ± 7 | – | – | – | – | IC50 ([1]; Table 1): 5 ± 1 µM; G0/G1 (A-549 cells; 25 μM): 53 ± 8%; G2/M (A-549 cells; 25 μM): 31 ± 7%; S (A-549 cells; 25 μM): 16 ± 2%
COC(=O)[C@@H](CC(C)C)NC(=O)COc1cc(/C=C\c2cc(OC)c(OC)c(OC)c2)ccc1OC [Compound 5.2] | 22 ± 3 | – | 13 ± 3 | 16 ± 3 | 26 ± 1 | – | – | – | – | G0/G1 (A-549 cells; 100 μM): 43 ± 4%; G2/M (A-549 cells; 100 μM): 34 ± 1%; S (A-549 cells; 100 μM): 23 ± 4%
COC(=O)[C@@H](Cc1ccccc1)NC(=O)COc1cc(/C=C\c2cc(OC)c(OC)c(OC)c2)ccc1OC [Compound 5.3] | 10 ± 3 | – | 3.7 ± 1.6 | 6 ± 1 | 12 ± 4 | – | – | – | – | G0/G1 (A-549 cells; 50 μM): 38 ± 2%; G2/M (A-549 cells; 50 μM): 43 ± 1%; S (A-549 cells; 50 μM): 19 ± 2%
COc1ccc(/C=C\c2cc(OC)c(OC)c(OC)c2)cc1NC(=O)[C@@H]1CCCN1C(=O)OCC1c2ccccc2-c2ccccc21 [Compound 7.6] | – | 6.0 ± 0.5 | – | – | – | 1.33 ± 0.09 | 0.13 ± 0.03 | 0.058 ± 0.012 | 0.32 ± 0.14 | –
COc1ccc(/C=C\c2cc(OC)c(OC)c(OC)c2)cc1NC(=O)[C@@H]1CCCN1 [Compound 8.6] | – | 8.4 ± 0.1 | – | – | – | 1.2 ± 0.3 | 2.4 ± 1.4 | 3.1 ± 0.6 | 0.7 ± 0.2 | –
COc1ccc(/C=C\c2cc(OC)c(OC)c(OC)c2)cc1NC(=O)[C@H](NC(=O)OCC1c2ccccc2-c2ccccc21)C(C)C [Compound 9.1] | – | 8.9 ± 1.5 | – | – | – | 7.34 ± 0.23 | 5.1 ± 0.7 | 4.8 ± 0.5 | 5.5 ± 0.7 | –
COc1ccc(/C=C\c2cc(OC)c(OC)c(OC)c2)cc1NC(=O)[C@@H](CC(C)C)NC(=O)OCC1c2ccccc2-c2ccccc21 [Compound 9.2] | – | 6.5 ± 0.7 | – | – | – | 48 ± 3 | 2.4 ± 0.4 | 3.1 ± 0.5 | 44 ± 6 | –
COc1ccc(/C=C\c2cc(OC)c(OC)c(OC)c2)cc1NC(=O)[C@@H](Cc1ccccc1)NC(=O)OCC1c2ccccc2-c2ccccc21 [Compound 9.3] | – | 6.6 ± 0.2 | – | – | – | 18.5 ± 1.7 | 11.2 ± 1.5 | 4.5 ± 1.7 | 13 ± 5 | –
COc1ccc(/C=C\c2cc(OC)c(OC)c(OC)c2)cc1NC(=O)[C@H](N)Cc1ccccc1 [Compound 10.3] | – | 7.7 ± 2.1 | – | – | – | 2.9 ± 0.5 | 3.5 ± 0.9 | 2 ± 0.8 | 3.9 ± 0.8 | –
COc1ccc(/C=C\c2cc(OC)c(OC)c(OC)c2)cc1NC(=O)[C@H]1CCCN1 [Compound 10.4] | – | 8.7 ± 1.2 | – | – | – | 7.03 ± 0.22 | 3 ± 0.6 | 0.6 ± 0.14 | 4.4 ± 1.9 | –
